Source: the supplement of paper PMC10307832

Legend:
Experiment in all cases: relative viability (nuclei count vs DMSO), 5 days (fraction); higher = more cells survive
Dinaciclib + Olaparib = compound: CCc1cnn2c(NCc3ccc[n+]([O-])c3)cc(N3CCCC[C@H]3CCO)nc12 [Dinaciclib] + O=C(c1cc(Cc2n[nH]c(=O)c3ccccc23)ccc1F)N1CCN(C(=O)C2CC2)CC1 [Olaparib] (partner 8 µM)
How it was run: (§1)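 A single step with final 0.05% Triton X-100, 1% formaldehyde and 1 ug/ml Hoechst fixed the cells and stained nuclei 5 days after treatment. Lung cancer cell lines in 1536-well plates had been treated by pin tool the day after seeding with one drug alone or a fixed anchor-drug dose plus five library-drug doses (not always all listed) in √10 steps, and nuclei were counted on 4× images. Relative viability is the ratio of nuclei in treated wells to nuclei in vehicle wells, taken as the median of duplicate plates.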

Dinaciclib + Lapatinib = compound: CCc1cnn2c(NCc3ccc[n+]([O-])c3)cc(N3CCCC[C@H]3CCO)nc12 [Dinaciclib] + CS(=O)(=O)CCNCc1ccc(-c2ccc3ncnc(Nc4ccc(OCc5cccc(F)c5)c(Cl)c4)c3c2)o1 [Lapatinib] (partner 2 µM)
How it was run: as §1

Dinaciclib + Phenformin = compound: CCc1cnn2c(NCc3ccc[n+]([O-])c3)cc(N3CCCC[C@H]3CCO)nc12 [Dinaciclib] + N=C(N)NC(=N)NCCc1ccccc1 [Phenformin] (partner 250 µM)
How it was run: as §1

Dinaciclib + Pemetrexed = compound: CCc1cnn2c(NCc3ccc[n+]([O-])c3)cc(N3CCCC[C@H]3CCO)nc12 [Dinaciclib] + Nc1nc2[nH]cc(CCc3ccc(C(=O)N[C@@H](CCC(=O)O)C(=O)O)cc3)c2c(=O)[nH]1 [Pemetrexed] (partner 0.2 µM)
How it was run: as §1

Dinaciclib + Palbociclib = compound: CCc1cnn2c(NCc3ccc[n+]([O-])c3)cc(N3CCCC[C@H]3CCO)nc12 [Dinaciclib] + CC(=O)c1c(C)c2cnc(Nc3ccc(N4CCNCC4)cn3)nc2n(C2CCCC2)c1=O [Palbociclib] (partner 0.5 µM)
How it was run: as §1

Cell Line	relative viability (Dinaciclib + Olaparib; first compound 0.009487 µM)	relative viability (Dinaciclib + Olaparib; first compound 0.03 µM)	relative viability (Dinaciclib + Olaparib; first compound 0.09487 µM)	relative viability (Dinaciclib + Olaparib; first compound 0.3 µM)	relative viability (Dinaciclib + Lapatinib; first compound 0.009487 µM)	relative viability (Dinaciclib + Lapatinib; first compound 0.03 µM)	relative viability (Dinaciclib + Lapatinib; first compound 0.09487 µM)	relative viability (Dinaciclib + Lapatinib; first compound 0.3 µM)	relative viability (Dinaciclib + Phenformin; first compound 0.009487 µM)	relative viability (Dinaciclib + Phenformin; first compound 0.03 µM)	relative viability (Dinaciclib + Phenformin; first compound 0.09487 µM)	relative viability (Dinaciclib + Phenformin; first compound 0.3 µM)	relative viability (Dinaciclib + Pemetrexed; first compound 0.009487 µM)	relative viability (Dinaciclib + Pemetrexed; first compound 0.03 µM)	relative viability (Dinaciclib + Pemetrexed; first compound 0.09487 µM)	relative viability (Dinaciclib + Pemetrexed; first compound 0.3 µM)	relative viability (Dinaciclib + Palbociclib; first compound 0.009487 µM)	relative viability (Dinaciclib + Palbociclib; first compound 0.03 µM)	relative viability (Dinaciclib + Palbociclib; first compound 0.09487 µM)	relative viability (Dinaciclib + Palbociclib; first compound 0.3 µM)
HCC-78	0.713	0.198	0.168	0.202	0.75	0.806	0.125	0.136	0.744	0.332	0.17	0.165	0.895	0.91	0.858	0.927	0.432	0.374	0.253	0.3
HCC-366	0.174	0.032	0.0277	0.0241	0.557	0.0225	0.0184	0.0226	0.593	0.137	0.03	0.0292	0.171	0.0414	0.0345	0.0329	0.272	0.0382	0.0205	0.0359
HCC-827	0.631	0.123	0.116	0.117	0.191	0.183	0.149	0.132	0.385	0.339	0.121	0.123	0.27	0.129	0.122	0.13	0.387	0.169	0.14	0.121
HOP-62	0.295	0.0722	0.0964	0.0667	0.917	0.281	0.0612	0.0566	0.54	0.299	0.0816	0.0886	0.255	0.0991	0.094	0.0662	0.465	0.187	0.071	0.0775
IA-LM	0.88	0.0461	0.0398	0.0287	0.73	0.0584	0.053	0.0435												
LC-2-ad	0.495	0.162	0.13	0.133	0.9	0.0784	0.058	0.0576	0.334	0.219	0.181	0.18	0.28	0.158	0.14	0.131	0.411	0.204	0.114	0.136
LCLC-97TM1	0.322	0.0664	0.0584	0.0621	0.662	0.173	0.0769	0.0958	0.391	0.257	0.153	0.129	0.152	0.0671	0.0619	0.062	0.18	0.0731	0.0753	0.0729
LCLC-103H	0.775	0.361	0.227	0.198					0.292	0.327	0.11	0.0875	0.465	0.566	0.223	0.217	0.402	0.441	0.208	0.192
LK-2	0.615	0.0883	0.0805	0.0778	0.712	0.182	0.102	0.176	0.274	0.142	0.156	0.125	0.38	0.0867	0.0811	0.0749	0.543	0.109	0.107	0.0837
LOU-NH91	0.861	0.269	0.239	0.234	0.738	0.302	0.254	0.238	0.645	0.249	0.208	0.151	0.443	0.276	0.256	0.234	0.508	0.307	0.268	0.273
LU99A	0.199	0.112	0.117	0.125	0.759	0.121	0.13	0.127	0.709	0.14	0.0878	0.132	0.205	0.16	0.132	0.137	0.383	0.124	0.138	0.106
NCI-H441	0.432	0.141	0.125	0.127					0.688	0.184	0.164	0.136	0.263	0.168	0.12	0.128	0.197	0.148	0.125	0.113
NCI-H522	0.573	0.469	0.339	0.204					0.598	0.5	0.341	0.339	1.32	1.14	0.371	0.25	1.19	0.855	0.316	0.255
NCI-H596	0.699	0.522	0.222	0.202	0.943	0.341	0.187	0.16	0.875	0.692	0.438	0.216	0.404	0.396	0.24	0.225				
NCI-H727	0.782	0.314	0.351	0.328	0.644	0.238	0.222	0.228	0.648	0.284	0.256	0.21					0.633	0.38	0.361	0.383
NCI-H1563					1.24	0.489	0.411	0.423	0.745	0.365	0.259	0.236	0.704	0.393	0.161	0.13				
NCI-H1703	0.475	0.0997	0.0838	0.113	1.01	0.133	0.114	0.134												
NCI-H2342	0.391	0.306	0.176	0.192					0.737	0.543	0.288	0.303	0.851	0.56	0.3	0.274	0.475	0.575	0.447	0.271
SW 900	0.749	0.414	0.172	0.166					0.612	0.141	0.0751	0.101	0.448	0.195	0.166	0.153	0.57	0.318	0.13	0.158
